Data on 31 compounds can be found in ChEMBL document CHEMBL1201862, “PubChem BioAssay data set” (2004).

Structures are written as SMILES. Activity calls are given as the source filed them.

One assay in a line: cells. It counts as functional.
In assay [1] the test system is Streptococcus sp. 'group A'. The experiment in a line: growth inhibition of control SK(-) GAS strain, dose response, counter-screen for streptokinase expression inhibitor project, luminescence, kanamycin, BacTiterGlo, confirmation (AID 1900). It counts as functional, organism-based.
For the next assay, the target named is T1, Streptokinase A (Streptococcus pyogenes serotype M1, UniProt P10520).
T1 sequence (P10520 whole entry): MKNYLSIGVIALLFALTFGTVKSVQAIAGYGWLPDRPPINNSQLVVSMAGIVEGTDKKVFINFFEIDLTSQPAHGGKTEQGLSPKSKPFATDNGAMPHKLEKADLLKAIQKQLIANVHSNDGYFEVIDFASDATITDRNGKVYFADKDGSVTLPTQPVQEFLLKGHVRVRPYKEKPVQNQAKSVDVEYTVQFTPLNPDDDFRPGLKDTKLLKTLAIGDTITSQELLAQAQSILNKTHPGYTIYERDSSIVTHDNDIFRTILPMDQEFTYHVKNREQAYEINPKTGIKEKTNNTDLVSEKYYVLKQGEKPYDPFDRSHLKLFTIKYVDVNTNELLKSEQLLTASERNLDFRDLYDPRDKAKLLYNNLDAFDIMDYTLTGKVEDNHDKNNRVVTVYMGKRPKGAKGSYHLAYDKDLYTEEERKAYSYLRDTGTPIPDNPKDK
Nature of the assay: S. pyogenes streptokinase expression inhibitors, potency, dose response, plasminogen activation absorbance, OD405 (AID 1914).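 Further: secreted streptokinase activity via plasminogen activation per viability signal from cell pellet.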 Type of assay: functional, Streptococcus pyogenes M1 GAS.

The test system of the next assay is Streptococcus. Nature of the assay: Group A Streptococcus viability loss, dose response, counter-screen for streptokinase expression inhibitor project, luminescence, BacTiterGlo (AID 1915).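 Further: potency for reduction of bacterial viability or growth.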 Type of assay: functional, organism-based.
Assay [2] can be described thus: NIH-3T3 fibroblast cytotoxicity, dose response, cytotoxicity control, cell-based, fluorescence, Alamar Blue, secondary assay (AID 2327).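 Further: NIH-3T3 mouse fibroblasts cultured with fluconazole at 8 µg/mL.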 It counts as functional.
Assay [3] is described as follows: inhibitors of firefly luciferase expression or activity, dose response, H4 neuroglioma cells, luminescence (AID 1990). Type of assay: functional, cell-based.
Assay [4] in a line: Luminescence Cell-Based Dose Response HTS to Identify Inhibitors of 5'UTR Stem-Loop Driven Prion Protein mRNA Translation in H4 Neuroglioblastoma Cells. [Related pubchem assays: 1827 (Project Summary), 1813 (Primary HTS)]. It counts as functional.
Assay [5] is described as follows: inhibitors of SNCA 5'UTR-driven reporter translation, confirmation, H4 neuroglioma cells, luminescence (AID 1988). Type of assay: functional, cell-based.
A short description of assay [6]: C. albicans growth with fluconazole, confirmation, fluorescence, retest (AID 2467). Type of assay: functional, cell-based.
Assay [7] concerns the target T2, RNA-binding protein pos-1 (Caenorhabditis elegans, UniProt G5EF15).
T2 sequence (G5EF15 whole entry): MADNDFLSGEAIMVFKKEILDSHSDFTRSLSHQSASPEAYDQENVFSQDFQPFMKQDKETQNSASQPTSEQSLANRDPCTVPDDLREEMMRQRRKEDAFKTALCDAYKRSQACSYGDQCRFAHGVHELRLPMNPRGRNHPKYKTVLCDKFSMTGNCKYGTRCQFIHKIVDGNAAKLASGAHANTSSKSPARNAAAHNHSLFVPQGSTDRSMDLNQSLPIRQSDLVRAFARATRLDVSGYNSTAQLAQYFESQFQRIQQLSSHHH
Nature of the assay: inhibitors of POS-1/mex-3 RNA binding, dose response, biochemical, fluorescence polarization (AID 1964).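 Further: purified POS-1 fused to maltose binding protein made in E. coli; potency of compounds blocking POS-1 binding to fluorescent RNA.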

Assay [8] concerns the target T3, Zinc finger protein mex-5 (Caenorhabditis elegans, UniProt Q9XUB2).
T3 sequence (Q9XUB2 whole entry): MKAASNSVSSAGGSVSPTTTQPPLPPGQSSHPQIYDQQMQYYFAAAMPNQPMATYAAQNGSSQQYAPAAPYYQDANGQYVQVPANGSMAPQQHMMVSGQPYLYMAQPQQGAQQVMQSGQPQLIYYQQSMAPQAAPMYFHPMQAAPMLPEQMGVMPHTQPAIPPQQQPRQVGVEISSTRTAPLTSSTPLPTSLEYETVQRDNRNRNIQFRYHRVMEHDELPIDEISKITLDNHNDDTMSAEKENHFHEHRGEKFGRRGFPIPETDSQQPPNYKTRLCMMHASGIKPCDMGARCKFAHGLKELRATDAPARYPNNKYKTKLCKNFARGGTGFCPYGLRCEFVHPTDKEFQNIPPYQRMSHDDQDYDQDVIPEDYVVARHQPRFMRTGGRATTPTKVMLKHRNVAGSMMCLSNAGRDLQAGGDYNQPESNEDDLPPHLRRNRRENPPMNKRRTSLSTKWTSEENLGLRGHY
The experiment in a line: MEX-5/TCR-2 RNA interaction inhibitors, dose response, biochemical, C. elegans, fluorescence polarization (AID 1960).

The target of a further assay is Cytochrome P450 2C19 (Homo sapiens, UniProt P33261). The experiment in a line: Cytochrome panel assay with activity outcomes. Panel member name: p450-cyp2c19 Compounds with AC50 equal or less than 10 uM are considered active. Type of assay: functional. The note with it: read-out: AC50.
Chain of Cytochrome P450 2C19 (P33261 whole entry): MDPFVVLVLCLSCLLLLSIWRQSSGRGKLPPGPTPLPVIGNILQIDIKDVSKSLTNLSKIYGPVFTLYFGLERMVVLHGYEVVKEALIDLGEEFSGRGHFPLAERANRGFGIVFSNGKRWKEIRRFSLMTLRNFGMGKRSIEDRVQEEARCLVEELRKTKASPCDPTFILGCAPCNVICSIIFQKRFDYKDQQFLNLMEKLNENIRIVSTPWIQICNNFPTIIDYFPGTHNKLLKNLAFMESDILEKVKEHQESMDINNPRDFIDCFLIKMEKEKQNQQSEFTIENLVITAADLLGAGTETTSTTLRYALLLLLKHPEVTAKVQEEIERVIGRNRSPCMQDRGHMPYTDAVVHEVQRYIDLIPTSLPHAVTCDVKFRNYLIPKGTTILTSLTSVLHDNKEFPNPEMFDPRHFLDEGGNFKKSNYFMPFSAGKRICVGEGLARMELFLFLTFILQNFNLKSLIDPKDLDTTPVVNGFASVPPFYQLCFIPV
Assay [9] is described as follows: HEp-2 cell cytotoxicity, dose response, cytotoxicity control for RSV inhibitor project, HTS (AID 2410). It counts as functional. The note with it: human respiratory syncytial virus.
The next assay has as its target Cytochrome P450 2D6 (Homo sapiens, UniProt P10635).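 Further: CYP2D6 member of a cytochrome P450 panel assay.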
In a further assay the target is Cytochrome P450 2C9 (Homo sapiens, UniProt P11712).
Chain of Cytochrome P450 2C9 (P11712 whole entry): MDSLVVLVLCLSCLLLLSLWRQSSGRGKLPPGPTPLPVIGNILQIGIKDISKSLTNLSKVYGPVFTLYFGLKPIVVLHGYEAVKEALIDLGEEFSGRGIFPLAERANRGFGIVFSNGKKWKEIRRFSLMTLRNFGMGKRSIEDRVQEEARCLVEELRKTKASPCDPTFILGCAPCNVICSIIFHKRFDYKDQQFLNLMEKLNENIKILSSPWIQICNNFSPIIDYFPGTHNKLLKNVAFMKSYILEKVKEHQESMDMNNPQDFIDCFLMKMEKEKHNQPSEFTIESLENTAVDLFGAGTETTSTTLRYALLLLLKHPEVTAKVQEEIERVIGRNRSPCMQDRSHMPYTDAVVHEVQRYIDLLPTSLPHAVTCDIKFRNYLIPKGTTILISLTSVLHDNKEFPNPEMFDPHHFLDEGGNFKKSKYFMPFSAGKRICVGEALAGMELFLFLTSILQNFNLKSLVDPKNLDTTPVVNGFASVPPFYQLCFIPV

Chain of Cytochrome P450 2D6 (P10635 whole entry): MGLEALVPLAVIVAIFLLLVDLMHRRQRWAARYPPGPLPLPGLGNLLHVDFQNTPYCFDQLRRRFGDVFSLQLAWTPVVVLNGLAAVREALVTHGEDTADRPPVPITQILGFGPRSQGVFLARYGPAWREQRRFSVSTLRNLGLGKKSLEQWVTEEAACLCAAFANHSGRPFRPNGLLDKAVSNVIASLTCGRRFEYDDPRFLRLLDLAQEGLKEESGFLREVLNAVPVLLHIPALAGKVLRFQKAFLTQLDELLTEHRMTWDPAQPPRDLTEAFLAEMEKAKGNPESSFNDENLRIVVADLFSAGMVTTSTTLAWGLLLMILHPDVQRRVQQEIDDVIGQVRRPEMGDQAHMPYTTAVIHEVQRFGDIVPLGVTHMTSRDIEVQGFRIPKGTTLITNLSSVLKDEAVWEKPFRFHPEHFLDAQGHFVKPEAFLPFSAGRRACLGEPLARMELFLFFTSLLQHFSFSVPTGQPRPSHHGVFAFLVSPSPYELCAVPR

Take `CCOC(=O)CN(C#N)c1nc(N(C)C)nc(N(C)C)n1`: in the assay “cells”, the IC50 is 26.9 µM (active).

With `COc1ccc2c(c1)c(CC(=O)Nc1cccc(S(N)(=O)=O)c1)c(C)n2C(=O)c1ccc(Cl)cc1`, the EC50 in [1] was 5.48 µM (active); at Streptokinase A, > 150 µM (not active); with Streptococcus, > 50 µM (not active).

For `COc1cc(C(=O)NC(=S)N(CCc2ccccc2)CCc2ccccc2)cc(OC)c1OC`, the EC50 in assay [2] was 28.6 µM (active); in assay [3], > 120 µM (not active); in assay [1], 0.525 µM (active); in assay [4], 12.2 µM (active); in [5] it was 10.6 µM (active); on Streptokinase A, > 150 µM (not active). Also, the results for the 50% effective concentration (EC50) (in [6]; in the assay with Streptococcus) were 4.2 µM (active) and 17.9 µM (active), respectively.

Consider `O=C(NCc1ccc2c(c1)OCO2)C(=O)NCC1OCCN1S(=O)(=O)c1ccc(Br)cc1` (centres undefined), for which the EC50 in [1] is > 150 µM (not active); at Streptokinase A it was > 150 µM (inconclusive); in the assay on Streptococcus, > 150 µM (not active).

Turning to `O=C(CN1C(=O)COc2ccc(S(=O)(=O)N3CCCCC3)cc21)NCc1ccc(F)cc1`, the EC50 (in assay [1]; at Streptokinase A; in the assay with Streptococcus) was > 150 µM (not active) each time.

In the case of `O=C(Nc1nnc(-c2ccc(Br)cc2)o1)c1cccc(N2C(=O)CCC2=O)c1`, the values for the EC50 (in assay [1]; at Streptokinase A; in the assay with Streptococcus) were 4.43 µM (active), > 150 µM (not active) and 14.1 µM (active), respectively.

On to `CC/C(=N\NC(=S)Nc1cccc(C)c1)c1ccccc1`, for which the EC50 was 12.3 µM (active) in [1], 21.3 µM (active) on Streptokinase A and > 50 µM (not active) in the assay with Streptococcus.

Regarding `COC(=O)[C@H]1[C@H](CCc2ccccc2)NC(=O)N(Cc2ccccc2)[C@@H]1C`, the EC50 at Streptokinase A and in the assay on Streptococcus was > 150 µM (not active) each time.

Take `Nc1nc(NCc2ccco2)nc(N2CCCCCC2)c1[N+](=O)[O-]`: the EC50 in [1] is 2.82 µM (active); at Streptokinase A, > 150 µM (not active); in the assay on Streptococcus, 7.75 µM (active).

On to `COc1ccc(N2C(N)=NC(N)=NC2(C)C)cc1`, for which the EC50 was 10 µM (active) in assay [3], > 120 µM (not active) in [4] and 7.02 µM (active) in assay [5].

As for `Cc1ccccc1N1CCN(C(=O)CCN2C(=O)c3ccccc3C2=O)CC1`, the EC50 (in [1]; on Streptokinase A; in the assay on Streptococcus) was > 150 µM (not active) in each case.

Take `O=C(NCC1CCCO1)c1ccc(CS(=O)(=O)Cc2ccc(F)cc2)o1` (centres undefined): the EC50 in assay [7] and in assay [8] was > 300 µM (not active) each time. For the same compound, the AC50 at Cytochrome P450 2C19 is 39.8 µM (inconclusive).

`C/C(=N/NS(=O)(=O)c1ccc(Cl)cc1)c1cccc(NC(=O)c2ccc(Cl)cc2Cl)c1`: the EC50 in assay [1] was 3.99 µM (active); on Streptokinase A it was 23.4 µM (active); with Streptococcus it was 47.6 µM (active).

For the compound `COc1ccc(/C=C/C(=O)NC(=S)NNC(=O)c2ccco2)cc1OC`, the EC50 was 3.65 µM (active) in assay [1], > 150 µM (not active) on Streptokinase A and 25.4 µM (active) in the assay on Streptococcus.

As for `Cc1cc(C)n(-c2nc(SCC(=O)O)c3c4c(sc3n2)CCCC4)n1`, the EC50 in [1] is 8.77 µM (active); on Streptokinase A, > 150 µM (not active); in the assay on Streptococcus, > 150 µM (not active).

For the compound `O=C(CN(Cc1ccc(F)cc1)C(=O)C1CSC(=O)C1)NC1CCCCC1` (centres undefined), the EC50 in assay [3], in assay [4] and in assay [5] was > 120 µM (not active) each time.

Consider `C1CCCCCC2(CCCCC1)OCC(CN1CCOCC1)O2` (centres undefined), for which the EC50 in assay [3], in assay [4] and in assay [5] was > 120 µM (not active) each time.

Regarding `C/C(CCc1oc2ccc(Cl)cc2c1-c1ccc(C)o1)=N\O`, the CC50 in [9] is 37.9 µM (active). Also, the EC50 in [7] and in assay [8] was > 300 µM (not active) each time.

Regarding `CC1C(=O)C(C)C(c2ccc(Cl)cc2)NC1c1ccc(Cl)cc1` (centres undefined), the EC50 in assay [3] is 13.8 µM (active); in assay [4], 15.7 µM (active); in [5], 17.1 µM (active).

On to `COc1ccc(O)c2c(=O)c3c(OC)cc4c(c3oc12)C1C=COC1O4` (centres undefined), for which the EC50 in assay [4] was 19.6 µM (active).

In the case of `Nc1[nH]nc(C2CC2)c1N=Nc1ccc(Cl)c(Cl)c1`, the cytotoxic concentration (CC50) in assay [9] is 17.5 µM (active). Moreover, the EC50 is 4.36 µM (active) in assay [1], 17 µM (active) on Streptokinase A and > 150 µM (not active) with Streptococcus.

On to `COc1cccc(/C=N/n2c(N)nc3ccccc32)c1OC`, for which the concentration for a half-maximal effect (EC50) (in assay [1]; on Streptokinase A; in the assay with Streptococcus) was > 150 µM (not active) in each case.

Regarding `COc1ccc(C(=O)/N=C2\SC3CS(=O)(=O)CC3N2Cc2ccccc2)cc1OC` (centres undefined), the EC50 in assay [3] is 26.2 µM (active); in assay [4] it was 25.4 µM (active); in [5] it was > 120 µM (not active).

On to `CN(Cc1ccc(OC(F)F)cc1)Cc1nc2c(Br)cc(Br)cc2c(=O)[nH]1`, for which the half-maximal effective concentration (EC50) on Streptokinase A was 29.4 µM (active).

Turning to `COc1cccc(C(=O)N2C(C(=O)O)CSC2c2ccccc2Cl)c1` (centres undefined), the 50% effective concentration (EC50) (in [1]; at Streptokinase A; with Streptococcus) was > 150 µM (not active) in each case.

On to `COC(=O)C1(C(C[N+](=O)[O-])c2ccc(C)cc2)C(=O)NCC1c1ccco1` (centres undefined), for which the EC50 in assay [1] is 8.44 µM (active); on Streptokinase A it was > 150 µM (inconclusive); with Streptococcus, 76.6 µM (active).

For `CCCN1CC=C2C(C#N)=C(N)C(C#N)(C#N)C(c3cc(OC)ccc3OC)C2C1` (centres undefined), the values for the EC50 in [7] and in assay [8] were 27.9 µM (active) and 25.5 µM (active), respectively. Further, the AC50 on Cytochrome P450 2C19 is 14.1 µM (inconclusive); at Cytochrome P450 2D6 it was 15.8 µM (inconclusive); on Cytochrome P450 2C9 it was 7.94 µM (inconclusive).

Turning to `Cc1cccc(OCC(=O)Nc2ccncc2)c1`, the EC50 (in assay [1]; on Streptokinase A; with Streptococcus) was > 150 µM (not active) throughout.

For the compound `Cc1cc(C)c(S(=O)(=O)N(C)CC(=O)NC2CCCC2)c(C)c1`, the EC50 in assay [3], in assay [4] and in assay [5] was > 120 µM (not active) in each case.

As for `CC(C)(O)c1[nH]c2cc(F)ccc2c1C(C)(C)O`, the EC50 is 2.05 µM (active) in assay [1], > 150 µM (not active) at Streptokinase A and 8.02 µM (active) with Streptococcus.

For `CCC1CN(C(=O)N2CCC(C(=O)NCc3ccc(C)o3)CC2)c2ccccc2O1` (centres undefined), the EC50 in assay [3], in assay [4] and in [5] was > 120 µM (not active) throughout.
